Holding throughout (format): cell-based
Series [1] concerns SW480 colon cancer cells. Nature of the series: MTT toxicity to tumor cells, under light and in the dark. Particulars: Homo sapiens. The method, then: (§1) In this experimental example, the toxicity of the compound to tumor cells was tested by an MTT method including the following specific steps.
(§2) (1) Logarithmic cells were collected, the concentration of a cell suspension was adjusted, the cell suspension was added to a cell culture plate in a dose of 100 μL per well, and the cells were then added to a cell culture plate so that the density of the cells to be tested was adjusted to 1000-10000 wells (edge wells were filled with sterile PBS).
(§3) (2) The cells were incubated at 37° C. in the presence of 5% CO2 until the cells in a single layer covered the bottom of each well (96-well flat-bottom plate), and a drug in concentration gradients was added. Generally, the drug in 5 to 7 gradients was added in a dose of 100 μL per well, and 3 to 5 multi-wells were set.
(§4) (3) The cells were randomly divided into treated groups under light and treated groups in the dark, incubated at 37° C. in the presence of 5% CO2 for 16 h to 48 h, and observed with an inverted microscope.
(§5) (4) The cells were irradiated for 900 s with a laser having a wavelength of 450 nm to 480 nm (at an intensity of 110 mW/cm^2), and the final light dose was about 100 J/cm^2. After light irradiation, the cells were washed with PBS.
(§6) (5) An MTT solution (5 mg/ml, 0.5% MTT) was added in a dose of 20 μL per well to further incubate the cells for 4 h. If the drug could react with the MTT, centrifuging was carried out first, and then the culture solution was discarded and the cells were carefully washed twice or three times with PBS, and then the culture solution containing MTT was added.
(§7) (6) The culture was terminated and the culture solution in the wells was carefully removed.
(§8) (7) Dimethyl sulfoxide was added in a dose of 150 μL per well, and the plate was then shaken on a shaker at a low speed for 10 min to fully dissolve crystals. The absorbance at OD 490 nm of each well was measured with enzyme-linked immunoassay.
(§9) (8) Zero adjustment wells (medium, MTT, dimethyl sulfoxide) and control wells (cells, dissolving media of the same concentration, culture solution, MTT, dimethyl sulfoxide) were set at the same time.

In series [2] the test system is B16 melanoma cell. Described as above. Particulars: Mus musculus, under light, 450-480 nm laser, 110 mW/cm^2, 900 s. The method, then:
as §1, §2, §3, §4, §5, §6, §7, §8, §9

Series [3] concerns Hela cells. Described as above. The note with it: Homo sapiens. The method, then:
as §1, §2, §3, §4, §5, §6, §7, §8, §9

In series [4] the test system is Escherichia coli. Nature of the series: Inhibitory effect on bacteria (colony counting), under light and in the dark. How it is done:
A single Escherichia coli colony was transferred from a solid Luria Bertani (LB) agar plate to 5 ml liquid LB medium and incubated at 37° C. for 12 h. Bacteria were collected by centrifugation (7000 rpm, 1 min) and washed with PBS buffer three times. The supernatant was discarded, and the remaining Escherichia coli cells were resuspended in the PBS buffer. The bacterial suspension was adjusted to make its optical density (OD600) to 1.0. The suspension was then diluted (5 times) with PBS buffer. The diluted Escherichia coli cell suspension was incubated in the dark at 37° C. for 15 min in the presence of a photosensitizer (diketone compound) solution with a concentration of 60 mM, and then irradiated for 200 s under a 15 mW/cm^2 laser light (with a wavelength of 450 nm to 480 nm and in the final light dose of about 3 J cm^2), and after the irradiation the bacterial suspension was serially diluted (10^4 times) with PBS buffer. 100 μL of the diluted bacterial Escherichia coli cell was dispersed on a solid LB agar plate and incubated at 37° C. for 12 h to 16 h, and colonies formed were counted. In the meanwhile, a treated group in the dark and an untreated group in the dark were set; the inhibition rate was determined by dividing the number of colony forming units (cfu) killed in the treated group under light or the treated group in the dark by the number of colony forming units (cfu) killed in the untreated group in the dark.

Series [5] deals with human immortalized keratinocyte (Hacat cells). Nature of the series: MTT cytotoxicity to normal cells, Experimental Example 5. The note with it: given under red light, 630-650 nm, 110 mW/cm^2, 900 s, 3 h incubation. How it is done:
(1) Logarithmic phase cells were collected, the concentration of a cell suspension was adjusted, the cell suspension was added to a cell culture plate in a dose of 100 μL per well, and the cells were then added to a cell culture plate so that the density of the cells to be tested was adjusted to 1000-10000 wells (edge wells were filled with sterile PBS). […] Generally, the drug in 5 to 7 gradients was added in a dose of 100 μL per well, and 3 to 5 wells were set for each concentration of a drug. […] Cells in the experimental photosensitizer-light irradiation group were incubated for 15 min and then irradiated with light. […] After light irradiation, the cells were washed with PBS. […] After light irradiation, the cells were washed with PBS. […] If the drug could react with the MTT, centrifuging was carried out first, and then the culture solution was discarded and the cells were carefully washed twice or three times with PBS, and then the culture solution containing MTT was added. (6) The culture was terminated and the culture solution in the wells was carefully removed. (7) Dimethyl sulfoxide was added in a dose of 150 μL per well, and the plate was then shaken on a shaker at a low speed for 10 min to fully dissolve crystals. The absorbance at OD 490 nm of each well was measured with enzyme-linked immunoassay. […]

Where [6] appears, read: SW480, under light, 450-480 nm laser, 110 mW/cm^2, 900 s.
The mark [7] stands for this setting: under light, 450-480 nm laser, 110 mW/cm^2, 900 s.
The mark [8] stands for this setting: 60 mM, 450-480 nm laser, 15 mW/cm^2, 200 s, read-out: Inhibition rate under light.
[9] abbreviates: 60 mM, in the dark, read-out: Inhibition rate in the dark.
[10] abbreviates: read-out: Inhibition rate in the dark.
Setting [11] is: read-out: Inhibition rate under light.

The values that follow come from US20220257764A1, “USE OF DIKETONE COMPOUND IN PHOTODYNAMIC THERAPY OR DIAGNOSIS” (BEIJING WHOLESOMETECH CO., LTD., priority 2019, published 2022).

For orientation: IC50 means the concentration at which inhibition is half-maximal. Higher therefore signals a need for much substance. What is called inhibition is the share of the control response that was lost under treatment.

Read-outs that look alike come from different tables or passages of the source.

In the case of `CC(=O)C(=O)CBr` [BJMU-203], the IC50 amounted to 3.1 ± 0.5 µM in series [1] (setting [6]), 2.7 ± 0.9 µM in series [2] and 2.8 ± 1.1 µM in series [3] (setting [7]). For the same compound, the values for the inhibition at 60000 µM in series [4] (setting [8]) and in series [4] (setting [9]) were 93% and 4.5%, respectively.
Take `O=C(C(=O)c1ccccc1)c1ccccc1` [BJMU-209]: the IC50 was 7800 ± 480 µM in series [1] (setting [6]) and 8200 ± 530 µM in series [3] (in the dark). Further, the inhibition at 60000 µM in series [4] (setting [10]) came to 9.5%; in series [4] (setting [11]), 26%.
For the compound `O=C(C(=O)c1ccc(Br)cc1)c1ccc(Br)cc1` [BJMU-211], the IC50 in series [1] (SW480, in the dark) amounted to 95000 ± 21300 µM; in series [1] (setting [6]) it was 3200 ± 230 µM.
As for `COc1ccc(C(=O)C(=O)c2ccc(OC)cc2)cc1` [BJMU-213], the IC50 was 6600 ± 370 µM in series [1] (setting [6]) and 6400 ± 400 µM in series [3] (in the dark).
With `CC(=O)C(=O)O` [BJMU-208], the IC50 in series [1] (setting [6]) was determined as 173 ± 10.8 µM; in series [2], 174 ± 10.9 µM; in series [3] (setting [7]), 162 ± 10.1 µM. In addition, the results for the inhibition at 60000 µM in series [4] (setting [8]) and in series [4] (setting [9]) were 45% and 8%, respectively.
Consider `O=C(C(=O)c1ccncc1)c1ccncc1` [BJMU-210], for which the IC50 was 9600 ± 600 µM in series [1] (setting [6]), 9800 ± 700 µM in series [2] and 9900 ± 700 µM in series [3] (setting [7]). Moreover, the figures for the inhibition at 60000 µM in series [4] (setting [8]) and in series [4] (setting [9]) were 24% and 6.4%, respectively.
On to `O=C(C(=O)c1ccco1)c1ccco1` [BJMU-214], for which the IC50 in series [1] (setting [6]) came out at 8900 ± 500 µM; in series [2] it was 9000 ± 510 µM; in series [3] (setting [7]), 8800 ± 480 µM. The results for the inhibition at 60000 µM in series [4] (setting [8]) and in series [4] (setting [9]) were 23% and 5.6%, respectively.
With `CCCC(=O)C(C)=O` [BJMU-202], the IC50 in series [1] (setting [6]) is 2.5 ± 0.5 µM; in series [2], 2.9 ± 0.1 µM; in series [3] (setting [7]) it was 2.6 ± 0.6 µM. For the same compound, the inhibition at 60000 µM turned out to be 90 ± 3% in series [4] (setting [8]) and 8.6% in series [4] (setting [9]).
For `CCC(=O)C(=O)CC` [BJMU-201], the IC50 worked out at 63.9 ± 10.5 µM in series [1] (setting [6]) and 59.9 ± 9.9 µM in series [3] (in the dark). Also, the inhibition at 60000 µM in series [4] (setting [10]) amounted to 4.9%; in series [4] (setting [11]), 58%.
Take `O=C(C(=O)c1ccc(F)cc1)c1ccc(F)cc1` [BJMU-212]: the IC50 in series [1] (SW480, in the dark) was determined as 99000 ± 15800 µM; in series [1] (setting [6]), 2800 ± 210 µM.
In the case of `CC(=O)C(=O)CC(C)C` [BJMU-206], the IC50 in series [1] (setting [6]) stood at 144 ± 31.9 µM; in series [2] it was 144 ± 32.5 µM; in series [3] (setting [7]), 141 ± 37.4 µM. Also, the inhibition at 60000 µM in series [4] (setting [8]) worked out at 46%; in series [4] (setting [9]) it was 11.5%.
The like results for `CCCCC(=O)C(C)=O` [BJMU-205] were, in that order, 6.4 ± 1.9 µM, 6.6 ± 1.8 µM, 5.7 ± 1.7 µM, 80% and 2%.
In the case of `NCC(=O)CCC(=O)O` [ALA, 5-α aminolevulinic acid, reference compound], in series [5], the “cytotoxicity to Hacat cells” value is “relatively high cytotoxicity”.
As for `O=C(O)C(=O)c1ccccc1` [BJMU-207], the IC50 is 99.2 ± 25.7 µM in series [1] (setting [6]), 96.6 ± 26.3 µM in series [2] and 93.3 ± 20.3 µM in series [3] (setting [7]). The values for the inhibition at 60000 µM in series [4] (setting [8]) and in series [4] (setting [9]) were 64% and 7.3%, respectively.
